Measured values reported in patent publication US20050112573A1, “Method of detecting toxic substance” (priority 2001, published 2005).

Tested on: yeast genes (level of expressed mRNA)
Assay: DNA chip analysis of expressed mRNA of yeast genes after 2 h culture with a toxic chemical substance
Assay type: cell-based, Saccharomyces cerevisiae S288C
Procedure, shortened: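 S. cerevisiae S288C in YPD at 25 °C was exposed at log phase for 2 h to a growth-inhibiting, non-lethal concentration of the chemical. Poly(A) mRNA was reverse-transcribed with Cy3- or Cy5-dUTP and hybridized to a whole-genome yeast DNA chip (65 °C, >12 h). Values are fluorescence ratios versus untreated cells.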

Na2As [(1)]
The level of expressed mRNA in the presence of chemical substance/ (yeast gene YFL010C, ratio to control without chemical substance, 2 h culture): 1.0
The level of expressed mRNA in the presence of chemical substance/ (yeast gene YFL024C, ratio to control without chemical substance, 2 h culture): 1.0
The level of expressed mRNA in the presence of chemical substance/The level of expressed mRNA in the absence of chemical substance (yeast gene YFL028C): 1.2
The level of expressed mRNA in the presence of chemical substance/ (yeast gene YFL032W, ratio to control without chemical substance, 2 h culture): 0.4
The level of expressed mRNA in the presence of chemical substance/The level of expressed mRNA in the absence of chemical substance (yeast gene YFL043C): 1.0
The level of expressed mRNA in the presence of chemical substance/in the absence of chemical substance (yeast gene YGL035C): 0.7
The level of expressed mRNA in the presence of chemical substance/ (yeast gene YGL037C, ratio to control without chemical substance, 2 h culture): 1.5
The level of expressed mRNA in the presence of chemical substance/ (yeast gene YGL047W, ratio to control without chemical substance, 2 h culture): 1.0
The level of expressed mRNA in the presence of chemical substance/ (yeast gene YGL053W, ratio to control without chemical substance, 2 h culture): 1.5
The level of expressed mRNA in the presence of chemical substance/ (yeast gene YGL121C, ratio to control without chemical substance, 2 h culture): 2.6
The level of expressed mRNA in the presence of chemical substance/The level of expressed mRNA in the absence of chemical substance (yeast gene YGL158W): 1.1
The level of expressed mRNA in the presence of chemical substance/ (yeast gene YGL199C, ratio to control without chemical substance, 2 h culture): 1.1
The level of expressed mRNA in the presence of chemical substance/The level of expressed mRNA in the absence of chemical substance (yeast gene YGL229C): 0.6
The level of expressed mRNA in the presence of chemical substance/ (yeast gene YGR101W, ratio to control without chemical substance, 2 h culture): 1.0
The level of expressed mRNA in the presence of chemical substance/ (yeast gene YGR110W, ratio to control without chemical substance, 2 h culture): 1.6
The level of expressed mRNA in the presence of chemical substance/ (yeast gene YGR130C, ratio to control without chemical substance, 2 h culture): 0.9
The level of expressed mRNA in the presence of chemical substance/The level of expressed mRNA in the absence of chemical substance (yeast gene YGR136W): 0.9
The level of expressed mRNA in the presence of chemical substance/ (yeast gene YGR154C, ratio to control without chemical substance, 2 h culture): 1.8
The level of expressed mRNA in the presence of chemical substance/The level of expressed mRNA in the absence of chemical substance (yeast gene YGR189C): 1.1
The level of expressed mRNA in the presence of chemical substance/The level of expressed mRNA in the absence of chemical substance (yeast gene YGR213C): 5.4
The level of expressed mRNA in the presence of chemical substance/ (yeast gene YGR221C, ratio to control without chemical substance, 2 h culture): 0.9
The level of expressed mRNA in the presence of chemical substance/The level of expressed mRNA in the absence of chemical substance (yeast gene YGR257C): 0.7
The level of expressed mRNA in the presence of chemical substance/in the absence of chemical substance (yeast gene YGR287C): 1.3
The level of expressed mRNA in the presence of chemical substance/The level of expressed mRNA in the absence of chemical substance (yeast gene YHR004C): 0.9
The level of expressed mRNA in the presence of chemical substance/The level of expressed mRNA in the absence of chemical substance (yeast gene YHR071W): 1.5
The level of expressed mRNA in the presence of chemical substance/ (yeast gene YHR138C, ratio to control without chemical substance, 2 h culture): 2.8
The level of expressed mRNA in the presence of chemical substance/The level of expressed mRNA in the absence of chemical substance (yeast gene YHR139C): 3.0
The level of expressed mRNA in the presence of chemical substance/The level of expressed mRNA in the absence of chemical substance (yeast gene YHR142W): 1.5
The level of expressed mRNA in the presence of chemical substance/ (yeast gene YHR199C, ratio to control without chemical substance, 2 h culture): 1.9
The level of expressed mRNA in the presence of chemical substance/ (yeast gene YIL023C, ratio to control without chemical): 1.1
The level of expressed mRNA in the presence of chemical substance/ (yeast gene YIL041W, ratio to control without chemical substance, 2 h culture): 1.0
The level of expressed mRNA in the presence of chemical substance/ (yeast gene YIL087C, ratio to control without chemical substance, 2 h culture): 1.3
The level of expressed mRNA in the presence of chemical substance/The level of expressed mRNA in the absence of chemical substance (yeast gene YIL123W): 1.0
The level of expressed mRNA in the presence of chemical substance/The level of expressed mRNA in the absence of chemical substance (yeast gene YIL140W): 0.7
The level of expressed mRNA in the presence of chemical substance/ (yeast gene YJL057C, ratio to control without chemical substance, 2 h culture): 1.5
The level of expressed mRNA in the presence of chemical substance/ (yeast gene YJL066C, ratio to control without chemical substance, 2 h culture): 0.9
The level of expressed mRNA in the presence of chemical substance/in the absence of chemical substance (yeast gene YJL070C): 1.3
The level of expressed mRNA in the presence of chemical substance/The level of expressed mRNA in the absence of chemical substance (yeast gene YJL073W): 0.8
The level of expressed mRNA in the presence of chemical substance/ (yeast gene YJL082W, ratio to control without chemical substance, 2 h culture): 1.4
The level of expressed mRNA in the presence of chemical substance/The level of expressed mRNA in the absence of chemical substance (yeast gene YJL089W): 1.1
The level of expressed mRNA in the presence of chemical substance/The level of expressed mRNA in the absence of chemical substance (yeast gene YJL116C): 0.9
The level of expressed mRNA in the presence of chemical substance/ (yeast gene YJL151C, ratio to control without chemical substance, 2 h culture): 1.0
The level of expressed mRNA in the presence of chemical substance/ (yeast gene YJL152W, ratio to control without chemical substance, 2 h culture): 0.9
The level of expressed mRNA in the presence of chemical substance/ (yeast gene YJL161W, ratio to control without chemical substance, 2 h culture): 1.7
The level of expressed mRNA in the presence of chemical substance/in the absence of chemical substance (yeast gene YJL167W): 0.9
The level of expressed mRNA in the presence of chemical substance/ (yeast gene YJL171C, ratio to control without chemical substance, 2 h culture): 2.3
The level of expressed mRNA in the presence of chemical substance/in the absence of chemical substance (yeast gene YJL216C): 0.8
The level of expressed mRNA in the presence of chemical substance/The level of expressed mRNA in the absence of chemical substance (yeast gene YJR004C): 0.2
The level of expressed mRNA in the presence of chemical substance/ (yeast gene YJR008W, ratio to control without chemical substance, 2 h culture): 1.6
The level of expressed mRNA in the presence of chemical substance/ (yeast gene YJR054W, ratio to control without chemical): 0.8
The level of expressed mRNA in the presence of chemical substance/The level of expressed mRNA in the absence of chemical substance (yeast gene YJR086W): 1.2
The level of expressed mRNA in the presence of chemical substance/The level of expressed mRNA in the absence of chemical substance (yeast gene YKL008C): 1.2
The level of expressed mRNA in the presence of chemical substance/The level of expressed mRNA in the absence of chemical substance (yeast gene YKL013C): 1.4
The level of expressed mRNA in the presence of chemical substance/The level of expressed mRNA in the absence of chemical substance (yeast gene YKL039W): 0.8
The level of expressed mRNA in the presence of chemical substance/The level of expressed mRNA in the absence of chemical substance (yeast gene YKL041W): 1.2
The level of expressed mRNA in the presence of chemical substance/ (yeast gene YKL071W, ratio to control without chemical substance, 2 h culture): 8.3
